Test results taken from patent publication US10493060B2, “Spirocyclic compounds” (ZENO ROYALTIES & MILESTONES, LLC, priority 2015, dated 2019).
pIC50: −log10 of the molar value.

How the values were obtained:
[1] = system: A375 (melanoma) cells; test: Proliferation assay (CellTiter-Glo), A375; assay type: cell-based; conditions: Homo sapiens, A-375, 72 h, 3 days
Experimental: A375 (melanoma), Colo-205 (colon cancer), Miapaca (pancreatic), HPAFII (pancreatic), sNF02.0 (neurofibromatosis type 1), sNF96.2 (neurofibromatosis type 1) and 8505 (Thyroid) cells were grown and maintained in RPMI-1640 medium containing 100 U/mL penicillin-streptomycin and 10% fetal bovine serum. Cells were in growth medium in 96-well opaque-walled clear bottom plates and incubated the in the CO2 incubator overnight before treatment. Cells were treated with compounds diluted in DMSO and a 10 point 3-fold serial dilutions were done. Plates were placed in 37° C., 5% CO2 for to incubate for 3 days. Before they were developed by adding 100 μL of CellTiter-Glo reagent (Promega) to the assay plate, plates were shaken briefly for 2 mins and allowed to incubate at rt for 10 mins. The bottom of the plates was pasted with white back seal and luminescence was recorded with Flexstation3 with setting of luminescence, integration time 500 ms.

[2] = target: Activated ERK2 (Homo sapiens (Human), UniProt P28482); test: Active ERK2 kinase assay (Mobility Shift Assay); assay type: biochemical
Experimental: (§1) Activated ERK1 and ERK2 activity was determined in a Mobility Shift Assay (MSA) format as follows: Compound and kinase solution were prepared with assay buffer (20 mM HEPES, 0.01% Triton X-100, 2 mM DTT, pH7.5) and mixed and incubated in for 30 mins at rt. ERK1 & ERK2 were then activated by the addition of Fl-Substrate, ATP and metal solution and incubated for 1 h at rt. After 1 h, the reaction was terminated by the addition of […] of Termination Buffer (QuickScout Screening Assist MSA; Carna Biosciences) to the well. The reaction mixture was applied to LabChip™ system (PerkinElmer), and the product and substrate peptide peaks were separated, analyzed and quantitated. The kinase reaction is evaluated by the product ratio calculated from peak heights of product (P) and substrate (S) peptides (P/(P+S)).

[3] = target: Activated ERK1 (Homo sapiens (Human), UniProt P27361); test: Active ERK1 kinase assay (Mobility Shift Assay); assay type: biochemical
Experimental: as §1

Chain of Activated ERK1 (P27361 whole entry): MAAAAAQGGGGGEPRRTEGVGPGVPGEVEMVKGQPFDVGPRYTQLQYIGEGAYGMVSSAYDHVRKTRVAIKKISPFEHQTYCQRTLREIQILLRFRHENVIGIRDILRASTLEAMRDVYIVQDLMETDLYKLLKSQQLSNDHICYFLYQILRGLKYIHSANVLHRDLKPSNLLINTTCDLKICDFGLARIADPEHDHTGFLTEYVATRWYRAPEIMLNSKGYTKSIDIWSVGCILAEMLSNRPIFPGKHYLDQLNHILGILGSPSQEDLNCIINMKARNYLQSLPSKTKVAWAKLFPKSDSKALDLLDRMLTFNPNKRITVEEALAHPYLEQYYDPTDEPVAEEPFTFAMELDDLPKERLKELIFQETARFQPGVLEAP
Chain of Activated ERK2 (P28482 whole entry): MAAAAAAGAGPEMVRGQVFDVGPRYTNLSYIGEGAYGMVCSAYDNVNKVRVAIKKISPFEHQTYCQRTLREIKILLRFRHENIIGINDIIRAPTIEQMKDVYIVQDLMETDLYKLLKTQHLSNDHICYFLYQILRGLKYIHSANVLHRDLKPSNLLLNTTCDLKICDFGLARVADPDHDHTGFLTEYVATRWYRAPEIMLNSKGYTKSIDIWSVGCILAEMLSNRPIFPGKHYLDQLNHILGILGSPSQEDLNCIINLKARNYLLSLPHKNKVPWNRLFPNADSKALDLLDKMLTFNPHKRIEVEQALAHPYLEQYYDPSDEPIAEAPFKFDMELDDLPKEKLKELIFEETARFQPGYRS

Cn1cnc(-c2ccc(C3=CCN(C(=O)CN4CC[C@]5(CCN(c6ccc7[nH]nc(-c8ccnc(C(C)(F)F)c8)c7c6)C5=O)C4)CC3)cc2)n1 [Example 39, (S)-2-(3-(2-(1,1-difluoroethyl)pyridin-4-yl)-1H-indazol-5-yl)-7-(2-(4-(4-(1-methyl-1H-1,2,4-triazol-3-yl)phenyl)-3,6-dihydropyridin-1(2H)-yl)-2-oxoethyl)-2,7-diazaspiro[4.4]nonan-1-one]
pIC50 [1]: ≥ 6.30 | pIC50 [2]: ≥ 7.30

CC(C)Oc1ccc(-c2n[nH]c3ccc(N4CC[C@]5(CCN(CC(=O)N6CCN(c7ccc(-c8ncn(C)n8)cc7)CC6)C5)C4=O)cc23)cn1 [Example 32, (S)-2-(3-(6-Isopropoxypyridin-3-yl)-1H-indazol-5-yl)-7-(2-(4-(4-(1-methyl-1H-1,2,4-triazol-3-yl)phenyl)piperazin-1-yl)-2-oxoethyl)-2,7-diazaspiro[4.4]nonan-1-one]
pIC50 [1]: ≥ 6.30 | pIC50 [2]: ≥ 7.30

Cn1cnc(-c2ccc(C3=CCN(C(=O)CN4CC[C@]5(CCN(c6ccc7[nH]nc(-c8ccncc8F)c7c6)C5=O)C4)CC3)cc2)n1 [Example 31, (S)-2-(3-(3-Fluoropyridin-4-yl)-1H-indazol-5-yl)-7-(2-(4-(4-(1-methyl-1H-1,2,4-triazol-3-yl)phenyl)-3,6-dihydropyridin-1(2H)-yl)-2-oxoethyl)-2,7-diazaspiro[4.4]nonan-1-one]
pIC50 [3]: ≥ 7.30 | pIC50 [1]: ≥ 6.30 | pIC50 [2]: ≥ 7.30

Cn1cnc(-c2ccc(C3=CCN(C(=O)CN4CC[C@]5(CCN(c6ccc7[nH]ncc7c6)C5=O)C4)CC3)cc2)n1 [Example 36, (S)-2-(1H-indazol-5-yl)-7-(2-(4-(4-(1-methyl-1H-1,2,4-triazol-3-yl)phenyl)-3,6-dihydropyridin-1(2H)-yl)-2-oxoethyl)-2,7-diazaspiro[4.4]nonan-1-one]
pIC50 [1]: ≤ 6.00 | pIC50 [2]: 6.60 to 7.30

CC(C)Oc1ccc(-c2n[nH]c3ccc(N4CC[C@]5(CCN(CC(=O)N6CC=C(c7ccc(-c8ncc(F)cn8)cc7)CC6)C5)C4=O)cc23)cn1 [Example 23, (S)-7-(2-(4-(4-(5-Fluoropyrimidin-2-yl)phenyl)-3,6-dihydropyridin-1(2H)-yl)-2-oxoethyl)-2-(3-(6-isopropoxypyridin-3-yl)-1H-indazol-5-yl)-2,7-diazaspiro[4.4]nonan-1-one]
pIC50 [3]: ≥ 7.30 | pIC50 [1]: 6.00 to 6.30 | pIC50 [2]: ≥ 7.30

Cn1cc(-c2ccc(C3=CCN(C(=O)CN4CC[C@]5(CCN(c6ccc7[nH]nc(-c8ccnc(C(F)(F)F)c8)c7c6)C5=O)C4)CC3)cc2)nn1 [Example 41, (S)-7-(2-(4-(4-(1-methyl-1H-1,2,3-triazol-4-yl)phenyl)-3,6-dihydropyridin-1 (2H)-yl)-2-oxoethyl)-2-(3-(2-(trifluoromethyl)pyridin-4-yl)-1H-indazol-5-yl)-2,7-diazaspiro[4.4]nonan-1-one]
pIC50 [1]: ≥ 6.30 | pIC50 [2]: ≥ 7.30

Cc1noc(-c2ccc(C3=CCN(C(=O)CN4CC[C@]5(CCN(c6ccc7[nH]nc(-c8ccnc(C(F)(F)F)c8)c7c6)C5=O)C4)CC3)cc2)n1 [Example 43, (S)-7-(2-(4-(4-(3-methyl-1,2,4-oxadiazol-5-yl)phenyl)-3,6-dihydropyridin-1(2H)-yl)-2-oxoethyl)-2-(3-(2-(trifluoromethyl)pyridin-4-yl)-1H-indazol-5-yl)-2,7-diazaspiro[4.4]nonan-1-one]
pIC50 [1]: ≤ 6.00 | pIC50 [2]: ≥ 7.30

Cn1cnc(-c2ccc(C3=CCN(C(=O)CN4CC[C@]5(CCN(c6ccc7[nH]nc(-c8cnccc8C(F)(F)F)c7c6)C5=O)C4)CC3)cc2)n1 [Example 34, (S)-7-(2-(4-(4-(1-Methyl-1H-1,2,4-triazol-3-yl)phenyl)-3,6-dihydropyridin-1(2H)-yl)-2-oxoethyl)-2-(3-(4-(trifluoromethyl)pyridin-3-yl)-1H-indazol-5-yl)-2,7-diazaspiro[4.4]nonan-1-one]
pIC50 [1]: ≤ 6.00 | pIC50 [2]: ≤ 6.60

Cn1cnc(-c2ccc(C3=CCN(C(=O)CN4CC[C@]5(CCN(c6ccc7[nH]nc(N8CCOCC8)c7c6)C5=O)C4)CC3)cc2)n1 [Example 33, (S)-7-(2-(4-(4-(1-Methyl-1H-1,2,4-triazol-3-yl)phenyl)-3,6-dihydropyridin-1 (2H)-yl)-2-oxoethyl)-2-(3-morpholino-1H-indazol-5-yl)-2,7-diazaspiro[4.4]nonan-1-one]
pIC50 [1]: ≥ 6.30 | pIC50 [2]: ≥ 7.30

Cc1nnc(-c2ccc(C3=CCN(C(=O)CN4CC[C@]5(CCN(c6ccc7[nH]nc(-c8ccnc(C(F)(F)F)c8)c7c6)C5=O)C4)CC3)cc2)o1 [Example 42, (S)-7-(2-(4-(4-(5-Methyl-1,3,4-oxadiazol-2-yl)phenyl)-3,6-dihydropyridin-1 (2H)-yl)-2-oxoethyl)-2-(3-(2-(trifluoromethyl)pyridin-4-yl)-1H-indazol-5-yl)-2,7-diazaspiro[4.4]nonan-1-one]
pIC50 [1]: ≥ 6.30 | pIC50 [2]: ≥ 7.30

CC(C)Oc1ccc(-c2n[nH]c3ccc(N4CCC5(CCN(CC(=O)N6CC=C(c7ccc(-c8ncn(C)n8)cc7)CC6)C5)C4)cc23)cn1 (stereo not shown) [Example 4, 2-(7-(3-(6-Isopropoxypyridin-3-yl)-1H-indazol-5-yl)-2,7-diazaspiro[4.4]nonan-2-yl)-1-(4-(4-(1-methyl-1H-1,2,4-triazol-3-yl)phenyl)-3,6-dihydropyridin-1(2H)-yl)ethan-1-one]
pIC50 [3]: ≤ 6.60 | pIC50 [2]: ≤ 6.60

CC(C)Oc1ccc(-c2n[nH]c3ccc(N4CC[C@]5(CCN(CC(=O)N6CC=C(c7ccc(-c8cn(C)cn8)cc7)CC6)C5)C4=O)cc23)cn1 [Example 26, (S)-2-(3-(6-Isopropoxypyridin-3-yl)-1H-indazol-5-yl)-7-(2-(4-(4-(1-methyl-1H-imidazol-4-yl)phenyl)-3,6-dihydropyridin-1(2H)-yl)-2-oxoethyl)-2,7-diazaspiro[4.4]nonan-1-one]
pIC50 [1]: ≥ 6.30 | pIC50 [2]: ≥ 7.30

CC(C)Oc1ccc(-c2n[nH]c3ccc(N4CCC5(CCN(Cc6ccccc6)C5)C4=O)cc23)cn1 (stereo not shown) [Example 21, 7-Benzyl-2-(3-(6-isopropoxypyridin-3-yl)-1H-indazol-5-yl)-2,7-diazaspiro[4.4]nonan-1-one]
pIC50 [3]: ≤ 6.60 | pIC50 [2]: ≤ 6.60

CC(C)Oc1ccc(-c2n[nH]c3ccc(N4CCC5(CCN(CC(=O)N6CCN(c7ccc(-c8ncn(C)n8)cc7)CC6)C5)C4=O)cc23)cn1 (stereo not shown) [Example 3, 2-(3-(6-Isopropoxypyridin-3-yl)-1H-indazol-5-yl)-7-(2-(4-(4-(1-methyl-1H-1,2,4-triazol-3-yl)phenyl)piperazin-1-yl)-2-oxoethyl)-2,7-diazaspiro[4.4]nonan-1-one]
pIC50 [3]: ≥ 7.30 | pIC50 [2]: ≥ 7.30

CC(C)Oc1ccc(-c2n[nH]c3ccc(N4CCC5(CCN(CC(=O)N6CC=C(c7ccc(-c8ncn(C)n8)cc7)CC6)C5)C4=O)cc23)cn1 (stereo not shown) [Example 1, 2-(3-(6-Isopropoxypyridin-3-yl)-1H-indazol-5-yl)-7-(2-(4-(4-(1-methyl-1H-1,2,4-triazol-3-yl)phenyl)-3,6-dihydropyridin-1(2H)-yl)-2-oxoethyl)-2,7-diazaspiro[4.4]nonan-1-one]
pIC50 [3]: ≥ 7.30 | pIC50 [2]: ≥ 7.30

Cc1cc(-c2n[nH]c3ccc(N4CC[C@@]5(CCN(CC(=O)N6CC=C(c7ccc(-c8ncn(C)n8)cc7)CC6)C5)C4=O)cc23)ccn1 [Example 9, (R)-7-(2-(4-(4-(1-Methyl-1H-1,2,4-triazol-3-yl)phenyl)-3,6-dihydropyridin-1(2H)-yl)-2-oxoethyl)-2-(3-(2-methylpyridin-4-yl)-1H-indazol-5-yl)-2,7-diazaspiro[4.4]nonan-1-one]
pIC50 [3]: 6.60 to 7.30 | pIC50 [2]: ≥ 7.30

CC(C)Oc1ccc(-c2n[nH]c3ccc(N4CC[C@]5(CCN(CC(=O)N6CC=C(c7ccc(-n8ccnn8)cc7)CC6)C5)C4=O)cc23)cn1 [Example 14, (S)-7-(2-(4-(4-(1H-1,2,3-Triazol-1-yl)phenyl)-3,6-dihydropyridin-1(2H)-yl)-2-oxoethyl)-2-(3-(6-isopropoxypyridin-3-yl)-1H-indazol-5-yl)-2,7-diazaspiro[4.4]nonan-1-one]
pIC50 [3]: ≥ 7.30 | pIC50 [2]: ≥ 7.30

Cn1cnc(-c2ccc(C3=CCN(C(=O)CN4CC[C@]5(CCN(c6ccc7[nH]nc(-c8ccnc(C(F)F)c8)c7c6)C5=O)C4)CC3)cc2)n1 [Example 40, (S)-2-(3-(2-(Difluoromethyl)pyridin-4-yl)-1H-indazol-5-yl)-7-(2-(4-(4-(1-methyl-1H-1,2,4-triazol-3-yl)phenyl)-3,6-dihydropyridin-1(2H)-yl)-2-oxoethyl)-2,7-diazaspiro[4.4]nonan-1-one]
pIC50 [1]: ≥ 6.30 | pIC50 [2]: ≥ 7.30

CC(C)Oc1ccc(-c2n[nH]c3ccc(N4CCC5(CN(CC(=O)N6CC=C(c7ccc(-c8ncn(C)n8)cc7)CC6)C5)C4=O)cc23)cn1 [Example 13, 6-(3-(6-Isopropoxypyridin-3-yl)-1H-indazol-5-yl)-2-(2-(4-(4-(1-methyl-1H-1,2,4-triazol-3-yl)phenyl)-3,6-dihydropyridin-1(2H)-yl)-2-oxoethyl)-2,6-diazaspiro[3.4]octan-5-one]
pIC50 [3]: 6.60 to 7.30 | pIC50 [2]: 6.60 to 7.30
